33 compounds from patent US8058475B2, “Substituted cyclohexylmethyl compounds” (Gruenenthal GmbH, priority 2005, dated 2011) can be followed below.

pKi: −log10 of the molar value. Like-named read-outs stand apart in the source and are kept apart here.

The target of this assay is human μ-opiate receptor (Homo sapiens, UniProt P35372). The assay is described as follows: Affinity for the human μ-opiate receptor ([3H]-naloxone displacement, SPA, CHO-K1 membrane preparation). Format: binding. The conditions noted are these: for inhibition at 1 µM: read-out: μ-Opioid receptor, % inhibition [1 μM]; for pKi: read-out: μ-Opioid receptor, Ki.
Sequence of human μ-opiate receptor (P35372 whole entry): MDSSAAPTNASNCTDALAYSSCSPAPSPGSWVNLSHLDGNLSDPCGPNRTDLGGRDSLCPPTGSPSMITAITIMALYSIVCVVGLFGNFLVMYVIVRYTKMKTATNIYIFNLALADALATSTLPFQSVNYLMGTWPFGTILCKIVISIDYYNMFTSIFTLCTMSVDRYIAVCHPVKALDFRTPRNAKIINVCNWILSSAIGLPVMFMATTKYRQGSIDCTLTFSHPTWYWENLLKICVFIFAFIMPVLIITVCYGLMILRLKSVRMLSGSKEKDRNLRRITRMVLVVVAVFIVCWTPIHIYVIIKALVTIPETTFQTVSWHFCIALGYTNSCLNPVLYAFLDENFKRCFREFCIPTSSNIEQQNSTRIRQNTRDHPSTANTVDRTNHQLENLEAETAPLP
Setting [1] is: 1 μM test substance, inhibition of specific [3H]-naloxone binding.

Consider `Cc1cc(C(=O)NCC2CCC(C(c3ccc(Cl)cc3)N(C)C)CC2)no1` (stereo not drawn) [compound 385, 5-methyl-isoxazole-3-carboxylic acid {4-[(4-chloro-phenyl)-dimethylamino-methyl]-cyclohexylmethyl}-amide], for which the inhibition at 1 µM was 82% and the pKi was 7.17.

Consider `CN(C)C(c1ccc(F)cc1)C1CCC(CNC(=O)Cc2cccs2)CC1` (stereo not drawn) [compound 359, N-{4-[dimethylamino-(4-fluoro-phenyl)-methyl]-cyclohexylmethyl}-2-thiophen-2-yl-acetamide], for which the inhibition at 1 µM came to 86%.

As to `CN(C)C(c1ccccc1)C1CCC(CNC(=O)c2cccc(Br)c2)CC1` (stereo not drawn) [compound 358, 3-bromo-N-[4-(dimethylamino-phenyl-methyl)-cyclohexylmethyl]-benzamide], the inhibition at 1 µM stood at 86% and the pKi was 7.96.

Turning to `CN(C)C(c1ccc(Cl)cc1)C1CCC(O)(c2cc(F)cc(F)c2)CC1` (stereo not drawn) [compound 166, 4-[(4-chloro-phenyl)-dimethylamino-methyl]-1-(3,5-difluoro-phenyl)-cyclohexanol], the inhibition at 1 µM under setting [1] was 62%.

As for `Cc1cccc(C(=O)NCCC2CCC(C(c3cccs3)N(C)C)CC2)c1` (stereo not drawn) [compound 430, N-{2-[4-(dimethylamino-thiophen-2-yl-methyl)-cyclohexyl]-ethyl}-3-methyl-benzamide], the inhibition at 1 µM came to 101% and the pKi was 8.36.

As to `CN(C)C(c1cccs1)C1CCC(NC(=O)CC(C)(C)C)CC1` (stereo not drawn) [compound 200, N-[4-(dimethylamino-thiophen-2-yl-methyl)-cyclohexyl]-3,3-dimethyl-butyramide], the inhibition at 1 µM was found to be 94% and the negative-log Ki (pKi) is 7.54.

Regarding `COc1ccccc1C(=O)NCCC1CCC(C(c2ccccc2)N(C)C)CC1` (stereo not drawn) [compound 414, N-{2-[4-(dimethylamino-phenyl-methyl)-cyclohexyl]-ethyl}-2-methoxy-benzamide], the inhibition at 1 µM amounted to 99% and the pKi is 8.34.

Take `CN(C)C(c1ccc(Cl)cc1)C1CCC(O)(c2ccccc2)CC1` (stereo not drawn) [compound 158, 4-[(4-chloro-phenyl)-dimethylamino-methyl]-1-phenyl-cyclohexanol]: the inhibition at 1 µM under setting [1] was 58%.

Turning to `CCC(C)C(=O)NCC1CCC(C(c2cccc(F)c2)N(C)C)CC1` (single isomer, unassigned) [compound 342, N-{4-[dimethylamino-(3-fluoro-phenyl)-methyl]-cyclohexylmethyl}-2-methyl-butyramide], the inhibition at 1 µM was 90% and the pKi is 7.55.

For `CN(C)C(c1cccc(F)c1)C1CCC(CNC(=O)c2ccccc2Br)CC1` (stereo not drawn) [compound 363, 2-bromo-N-{4-[dimethylamino-(3-fluoro-phenyl)-methyl]-cyclohexylmethyl}-benzamide], the inhibition at 1 µM turned out to be 85% and the pKi is 7.42.

On to `CN(C)C(c1ccccc1)C1CCC(NC(=O)c2ccc(Cl)c(Cl)c2)CC1` (stereo not drawn) [compound 189, 3,4-dichloro-N-[4-(dimethylamino-phenyl-methyl)-cyclohexyl]-benzamide], for which the inhibition at 1 µM was found to be 99% and the pKi is 7.96.

`CN(C)C(c1ccccc1)C1CCC(CNC(=O)c2cccs2)CC1` (stereo not drawn) [compound 328, thiophene-2-carboxylic acid [4-(dimethylamino-phenyl-methyl)-cyclohexyl-methyl]-amide]: the inhibition at 1 µM was 94% and the pKi was 7.80.

`CN(C)C(c1ccccc1)C1CCC(NC(=O)c2cccs2)CC1` (single isomer, unassigned) [compound 249, thiophene-2-carboxylic acid [4-(dimethylamino-phenyl-methyl)-cyclohexyl]-amide]: the pKi is 7.19. Besides, the “μ-Opioid receptor, % inhibition [1 μM]” value (1 µM) is 81%.

`CN(C)C(c1ccccc1)C1CCC(NC(=O)c2cccc3ccccc23)CC1` (stereo not drawn) [compound 226, naphthyl-1-carboxylic acid [4-(dimethylamino-phenyl-methyl)-cyclohexyl]-amide]: the “μ-Opioid receptor, % inhibition [1 μM]” value stood at 87% and the pKi was 7.24.

Turning to `CN(C)C(c1cccc(F)c1)C1CCC(O)(c2ccc(Cl)c(C(F)(F)F)c2)CC1` (stereo not drawn) [compound 157, 1-(4-chloro-3-trifluoromethyl-phenyl)-4-[dimethylamino-(3-fluoro-phenyl)-methyl]-cyclohexanol], under setting [1], the inhibition at 1 µM stood at 72%.

Turning to `CN(C)C(c1ccccc1)C1CCC(NC(=O)c2csc3ccccc23)CC1` (stereo not drawn) [compound 183, benzo[b]thiophene-3-carboxylic acid [4-(dimethylamino-phenyl-methyl)-cyclohexyl]-amide], the inhibition at 1 µM is 103% and the pKi was 8.41.

In the case of `COc1ccccc1C(=O)NCC1CCC(C(c2cccc(F)c2)N(C)C)CC1` (stereo not drawn) [compound 368, N-{4-[dimethylamino-(3-fluoro-phenyl)-methyl]-cyclohexylmethyl}-2-methoxy-benzamide], the inhibition at 1 µM was determined as 84% and the pKi was 7.47.

In the case of `CN(C)C(c1ccccc1)C1CCC(CCNC(=O)COCc2ccccc2)CC1` (stereo not drawn) [compound 450, 2-benzyloxy-N-{2-[4-(dimethylamino-phenyl-methyl)-cyclohexyl]-ethyl}-acetamide], the inhibition at 1 µM came out at 89% and the negative-log Ki (pKi) is 7.09.

As to `CN(C)C(c1ccccc1)C1CCC(CNC(=O)C2(c3ccc(Cl)cc3)CCCC2)CC1` (stereo not drawn) [compound 339, 1-(4-chloro-phenyl)-cyclopentane-carboxylic acid [4-(dimethylamino-phenyl-methyl)-cyclohexylmethyl]-amide], the pKi was 7.60. The “μ-Opioid receptor, % inhibition [1 μM]” value (1 µM) was 91%.

With `CN(C)C(c1cccc(F)c1)C1CCC(CCNC(=O)c2ccccc2Br)CC1` (stereo not drawn) [compound 396, 2-bromo-N-(2-{4-[dimethylamino-(3-fluoro-phenyl)-methyl]-cyclohexyl}-ethyl)-benzamide], the inhibition at 1 µM came to 97% and the pKi is 7.92.

On to `CN(C)C(c1cccs1)C1CCC(CCNC(=O)c2cccc(Cl)c2)CC1` (stereo not drawn) [compound 424, 3-chloro-N-{2-[4-(dimethylamino-thiophen-2-yl-methyl)-cyclohexyl]-ethyl}-benzamide], for which the inhibition at 1 µM was determined as 99% and the pKi is 8.57.

In the case of `CN(C)C(c1ccc(F)cc1)C1CCC(CNC(=O)CC(C)(C)C)CC1` (stereo not drawn) [compound 322, N-{4-[dimethylamino-(4-fluoro-phenyl)-methyl]-cyclohexylmethyl}-3,3-dimethyl-butyramide], the inhibition at 1 µM amounted to 95% and the pKi was 7.51.

Turning to `CN(C)C(c1ccccc1)C1CCC(CNC(=O)c2cc([N+](=O)[O-])cc([N+](=O)[O-])c2)CC1` (stereo not drawn) [compound 392, N-[4-(dimethylamino-phenyl-methyl)-cyclohexylmethyl]-3,5-dinitro-benzamide], the inhibition at 1 µM amounted to 80%. Also, the pKi (acylated amines (Table 20)) is 6.74.

For the compound `COC(=O)C(Cc1c[nH]c2ccccc12)NC1CCC(C(c2ccccc2)N(C)C)CC1` (single isomer, unassigned) [compound 174, methyl 2-(4-((dimethylamino)(phenyl)methyl)cyclohexylamino)-3-(1H-indol-3-yl)propanoate], the pKi is 8.31. Besides, under setting [1], the inhibition at 1 µM turned out to be 95%.

On to `CN(C)C(c1ccc(Cl)cc1)C1CCC(O)(Cc2ccc(F)cc2)CC1` (stereo not drawn) [compound 172, 4-[(4-chloro-phenyl)-dimethylamino-methyl]-1-(4-fluoro-benzyl)-cyclohexanol], for which the inhibition at 1 µM under setting [1] amounted to 77%.

As to `CN(C)C(CCc1ccccc1)C1CCC(NC(=O)c2ccc(F)c(C(F)(F)F)c2)CC1` (single isomer, unassigned) [compound 210, N-[4-(1-dimethylamino-3-phenyl-propyl)-cyclohexyl]-4-fluoro-3-trifluoromethyl-benzamide], the inhibition at 1 µM came to 92% and the pKi was 7.62.

For the compound `Cc1cccc(C(=O)NCCC2CCC(C(c3cccc(F)c3)N(C)C)CC2)c1` (stereo not drawn) [compound 412, N-(2-{4-[dimethylamino-(3-fluoro-phenyl)-methyl]-cyclohexyl}-ethyl)-3-methyl-benzamide], the inhibition at 1 µM came out at 93% and the pKi is 7.49.

Turning to `CN(C)C(c1ccccc1)C1CCC(NC(=O)C2(c3ccc(Cl)cc3)CCCC2)CC1` (stereo not drawn) [compound 184, 1-(4-chloro-phenyl)-cyclopentanecarboxylic acid [4-(dimethylamino-phenyl-methyl)-cyclohexyl]-amide], the inhibition at 1 µM came to 101% and the pKi was 8.28.

With `Cc1cccc(C(=O)NCCC2CCC(C(c3ccc(F)cc3)N(C)C)CC2)c1` (stereo not drawn) [compound 429, N-(2-{4-[dimethylamino-(4-fluoro-phenyl)-methyl]-cyclohexyl}-ethyl)-3-methyl-benzamide], the inhibition at 1 µM was 88% and the pKi was 7.26.

For `CN(C)C(c1cccc(F)c1)C1CCC(O)(c2cc(Cl)cc(Cl)c2)CC1` (stereo not drawn) [compound 155, 1-(3,5-dichloro-phenyl)-4-[dimethylamino-(3-fluoro-phenyl)-methyl]-cyclohexanol], under setting [1], the inhibition at 1 µM turned out to be 77%.

As to `CCC(C)C(=O)NCC1CCC(C(c2cccc(F)c2)N(C)C)CC1` (single isomer, unassigned) [compound 378, N-{4-[dimethylamino-(3-fluoro-phenyl)-methyl]-cyclohexylmethyl}-2-methyl-butyramide], the pKi is 7.26. Moreover, where the note is “1 µM”, the “μ-Opioid receptor, % inhibition [1 μM]” value is recorded as 83%.

On to `Cc1oc(-c2ccccc2)cc1C(=O)NC1CCC(C(c2ccccc2)N(C)C)CC1` (stereo not drawn) [compound 214, 2-methyl-5-phenyl-furan-3-carboxylic acid [4-(dimethylamino-phenyl-methyl)-cyclohexyl]-amide], for which the inhibition at 1 µM is 91% and the pKi was 7.55.

`CC(Oc1ccccc1)C(=O)NC1CCC(C(c2cccc(F)c2)N(C)C)CC1` (single isomer, unassigned) [compound 222, N-{4-[dimethylamino-(3-fluoro-phenyl)-methyl]-cyclohexyl}-2-phenoxy-propionamide]: the pKi is 7.70. Also, for the setting “1 µM”, the “μ-Opioid receptor, % inhibition [1 μM]” value came out at 88%.
